Measured values: patent US8709445B2, “Vaccination with killed but metabolically active (KBMA) protozoans with toll-like receptor agonists” (priority 2007, dated 2014)
Entries after “also recorded” stand apart in the source; their conditions may differ.

What was measured:
[1] = test system: Leishmania chagasi; assay: In vitro luciferase assay of parasite metabolic activity after S-59 and UVA; format: cell-based
Experimental: The L. chagasi strain (MHOM/BR/00/1669), originally isolated from a patient with visceral leishmaniasis in Northeast Brazil, was maintained by serial intracardiac injection in outbred male golden hamsters. Virulent amastigotes were isolated from hamster spleens removed from animals infected approximately 3 months prior to sacrifice. Promastigotes were cultured in hemoflagellate minimal essential medium (HOMEM) at 26° C. and were used for vaccination or challenge within one month of harvest from the hamsters. Killed But Metabolically Active (KBMA) promastigotes were prepared by incubating late-log or stationary phase organisms in amotosalen (S-59) 100 nM for one hour while shaking at room temperature, followed by cross-linking of DNA using UVA irradiation of aliquots of 2 ml of cells in 6 well plates in an Intercept Illuminator (Cerus Corporation). Radiation dose was 5.4 J/cm^2. Heat-killed organisms were prepared by incubating in a 100° C. bath for 10 minutes. Transgenic firefly luciferase expressing L. chagasi and L. major were kindly provided by Dr. Beverley. For CFSE-based flow cytometry experiments, promastigotes were stained with CFSE at 5 μM and, shaken at 37° C. for 10 minutes. Parasites were washed three times with PBS and then cultured at an initial concentration of 5×10^6 per ml in HOMEM for in vitro experiments or injected into mice in 200 μL, of PBS at a concentration of 5×10^8 per ml.
Serial measures of parasite luciferase activity were made using a Sirius Single Tube Luminometer (Berthold Detection Systems). Aliquots of cultured organisms were taken daily and combined with 5× reporter lysis buffer per the manufacturer's instructions, and frozen at −80° C. All samples were then snap-thawed at 37° C. on the day of assay. 50 μl samples from each aliquot were combined with 100 μl of luciferin and luminescence was quantified with the luminometer in relative luminsescence units (RLU).
A mouse visceral leishmaniasis model employing Leishmania chagasi expressing firefly luciferase was used to test the susceptibility of a eukaryotic pathogen to in vitro inactivation?). L. chagasi were treated with varying doses of S-59 for 1 hour and then exposed to 5.4 J/cm2 UVA using a commercial illuminator which delivers tightly metered UVA doses to a shaking flask of organisms. This UVA dose was determined based on prior experience with Listeria. After irradiation with UVA, parasites were kept in culture and assayed at various time points for luciferase expression as a measure of metabolic activity. […] To determine if the S-59 induced decline in luciferase activity was associated with an inability to replicate, live L. chagasi promastigotes were stained with the intracellular dye CFSE and monitored for 1 week in culture.

[2] = test system: L. chagasi promastigotes; assay: CFSE flow cytometry of promastigote replication in culture; format: cell-based, Leishmania chagasi; settings: 100 nM S-59 and 5.4 Joules/cm^2 UVA; days 1-7 in culture
Experimental: The L. chagasi strain (MHOM/BR/00/1669), originally isolated from a patient with visceral leishmaniasis in Northeast Brazil, was maintained by serial intracardiac injection in outbred male golden hamsters. Virulent amastigotes were isolated from hamster spleens removed from animals infected approximately 3 months prior to sacrifice. Promastigotes were cultured in hemoflagellate minimal essential medium (HOMEM) at 26° C. and were used for vaccination or challenge within one month of harvest from the hamsters. Killed But Metabolically Active (KBMA) promastigotes were prepared by incubating late-log or stationary phase organisms in amotosalen (S-59) 100 nM for one hour while shaking at room temperature, followed by cross-linking of DNA using UVA irradiation of aliquots of 2 ml of cells in 6 well plates in an Intercept Illuminator (Cerus Corporation). Radiation dose was 5.4 J/cm^2. […]
A mouse visceral leishmaniasis model employing Leishmania chagasi expressing firefly luciferase was used to test the susceptibility of a eukaryotic pathogen to in vitro inactivation?). […] This UVA dose was determined based on prior experience with Listeria. […] To determine if the S-59 induced decline in luciferase activity was associated with an inability to replicate, live L. chagasi promastigotes were stained with the intracellular dye CFSE and monitored for 1 week in culture.

[3] = test system: L. chagasi; format: in vivo, Leishmania chagasi; settings: for protection (reduction in liver parasite load): pilot experiment, combination of subcutaneous KBMA-LC and topically applied TLR agonist
Experimental: On the day prior to each vaccination, mice were anesthetized by intraperitoneal injection of 0.2 ml a solution of ketamine 9.1 mg/ml and xylazine 0.73 mg/ml. A 2×3 cm patch of fur in the dorsal cervical area was shaved, and 50 mg of adjuvant cream—either imiquimod 5% cream or appropriate vehicle (3M Pharmaceuticals)—was applied topically to the shaved area. On the day of immunization, mice were anesthetized as above. Unfractionated late-log to stationary phase promastigotes (live or KBMA) were spun at 2000 g for 10 minutes, resuspended in PBS, counted on a Neubauer hemocytometer, and volume-adjusted to a final concentration of 10^8 organisms/ml. One hundred micoliters of the appropriate parasite suspension (10^7 organisms) or 100 μl of PBS for controls was subcutaneously injected into the dorsal-cervical area of anesthetized mice using a 28-gauge needle. Adjuvant cream was then applied at the shaved skin site as above. On the day after immunization, adjuvant cream was once again applied topically as above on unanesthetized mice. For each experiment, mice were immunized three times at two-week intervals. Two weeks after the final immunization, mice were challenged by intravenous injection with 10^7 unfractionated late-log to stationary phase promastigotes in 0.2 ml of PBS.
Vaccinated mice were sacrificed by CO2 inhalation 4 weeks after intravenous challenge. Livers and spleens were weighed. Impression smears on glass slides were made from dissected spleen and liver tissue and were then methanol-fixed and amastigotes were detected with Giemsa stain. Organ parasite load was scored by direct microscopy and rendered in Leishman-Donavan Units (LDU), defined as number of parasites divided by number of mammalian cells multiplied by the organ mass in milligrams. At least 500 mammalian cells or 500 parasites were counted by a scorer blinded to the vaccination groups.

[4] = test system: splenocytes; assay: Luminex cytokine production in splenocytes from immunized mice; format: in vivo, BALB/c mice
Experimental: FIG. 11C: Luminex quantitation of cytokine production in splenocytes from L. chagasi immunized BALB/c mice with or without adjuvant 5% imiquimod. Mice were immunized three times at two week as in FIG. 10. Two weeks after the final vaccination, animals were sacrificed and 10^6 splenocytes from each were cultured for 66 hours in either in the presence of live L. chagasi. Supernatants from these cultures were frozen and then subsequently thawed and analyzed by the luminex method using antibodies and antibody coated beads specific for the indicated cyotokines. Bars show concentration of the relevant cytokine in pg/ml+/−SEM.
In a parallel experiment, groups of mice were vaccinated and boosted twice as described above. Splenocytes were harvested from these animals 2 weeks after the third vaccination. Splenocytes were then stimulated with either live LC promastigotes or soluble L. chagasi antigen (SLA) for 66 hours in culture and supernatants were harvested.

| Structure (SMILES) | time by which all detectable metabolic activity was abolished ([1]; 10^7 promastigotes, 100 nM S-59 and 5.4 Joules/cm^2 UVA) [weeks] | luciferase activity by day 21 ([1]; 100 nm S-59 and UVA, culture inoculated at 10^7 per ml) | effect of higher doses of S-59 on luciferase activity ([1]; doses higher than 100 nM, with UVA, data not shown) | S-59 dose leading to breakthrough outgrowth of parasites ([1]; with 5.4 J/cm2 UVA, data not shown) | replication of CFSE stained promastigotes (per parasite fluorescence) [2] | effect of adjuvant only ([3]; Example 3, imiquimod 5% without whole cell vaccine (PBS)) | effect of adjuvant cream compared to control vehicle cream ([3]; Example 3, topical 5% cream in each vaccination group) | protection (reduction in liver parasite load) [3] [%] | pattern of cytokine expression, whole cell vaccines with adjuvant versus vehicle ([4]; imiquimod 5% with whole cell vaccines) | cytokine production, PBS with adjuvant versus PBS with vehicle ([4]; imiquimod 5% without whole cell vaccine) |
| --- | --- | --- | --- | --- | --- | --- | --- | --- | --- | --- |
| Cc1oc2c(C)c3oc(=O)cc(C)c3cc2c1COCCN [S-59, amotosalen] | ≤ 3 | approaches baseline luminescence from PBS | more rapid decline in luciferase activity | lower than 50 nM | no such diminution; also recorded: arrests replication | – | – | – | – | – |
| CC(C)Cn1cnc2c(N)nc3ccccc3c21 [imiquimod, 1-isobutyl-1H-imidazo[4,5-c]quinolin-4-amine] | – | – | – | – | – | trend towards a protective effect | additional protection | 68 | increased IFN-γ but decreased IL-10, IL-4, and IL-5 | no increase in cytokine production |
| CCOCc1nc2c(N)nc3ccccc3c2n1CC(C)(C)O [resiquimod, 4-Amino-2-(ethoxymethyl)-a,a-dimethyl-1H-imidazo[4,5-c]quinoline-1-ethanol] | – | – | – | – | – | – | – | 87 | – | – |
